Paper PMC11744766, “Dual Inhibitors of SARS-CoV-2 3CL Protease and Human Cathepsin L Containing Glutamine Isosteres Are Anti-CoV-2 Agents” (Journal of the American Chemical Society, 2025)
Values joined by “and” are separate entries in the source; they are usually repeats but may differ in a detail not shown here. Identical values can stand only once. Like-named read-outs stand apart in the source and are kept apart here.

Key:
[1] = target: T1, SARS-CoV-2 3CL protease (3CL-PR) (Severe acute respiratory syndrome coronavirus 2, UniProt P0DTC1); experiment: biochemical; type: biochemical
human cathepsin B = target: T2, human cathepsin B (Homo sapiens, UniProt P07858); experiment: Kinetic assay of human cathepsin B inhibition (Z-LR-AMC fluorescence); type: biochemical
T2 construct: purchased Millipore Sigma or R&D Systems

human cathepsin L [2] = target: T3, human cathepsin L (Homo sapiens, UniProt P07711); experiment: Kinetic assay of human cathepsin L inhibition (Z-LR-AMC / Z-FR-AMC fluorescence); type: biochemical; conditions: for mode of inhibition of hCatL: inhibitor vs variable substrate
T3 construct: His-tag (only implied by the Ni-NTA capture and the pET-28a(+) vector); host or cells: E. coli C43(DE3)
T3 sequence (P07711 114-333): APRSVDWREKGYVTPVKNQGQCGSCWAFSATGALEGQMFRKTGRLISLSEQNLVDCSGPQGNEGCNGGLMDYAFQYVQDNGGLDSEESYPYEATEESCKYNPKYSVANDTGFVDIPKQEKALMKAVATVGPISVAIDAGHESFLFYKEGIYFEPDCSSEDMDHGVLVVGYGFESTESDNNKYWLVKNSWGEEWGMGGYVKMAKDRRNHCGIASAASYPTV

[3] = system: SARS-CoV-2 (USA_WA1/2020 isolate); experiment: Vero E6-based microneutralization assay of SARS-CoV-2 infection (CPE); type: cell-based; conditions: for fold less potent in inhibiting SARS-CoV-2 infection than Nirmatrelvir and PF-835231: ratio of EC50
human cathepsin L [4] = target: T3, human cathepsin L; conditions: read-out: Ki (hCatL), cited from earlier work
[5] = target: T1, SARS-CoV-2 3CL protease (3CL-PR); conditions: cited from earlier work; for Ki: read-out: Ki (3CL-PR)
[6] = 25 °C, pH 7.5, time-dependent inhibitors at t ∼ 30 min (steady-state), read-out: Ki * (nM) 3CL-PR
[7] = 25 °C, pH 5.5, time-dependent inhibitors at t ∼ 30 min (steady-state), read-out: Ki * (nM) hCat B
[8] = initial rates, t = 0–3 min, read-out: Ki (hCatB) from initial rates vi/v0
[9] = 25 °C, pH 5.5, time-dependent inhibitors at t ∼ 30 min (steady-state), read-out: Ki * (nM) hCat L
[10] = Severe acute respiratory syndrome coronavirus 2, Vero C1008, 72 h, Vero E6 cells, 2 μM CP-100356, CPE after 3 days, read-out: Anti-SARS-CoV-2 Activity EC50

Which results are given for `CC(C)C[C@H](NC(=O)OCc1ccccc1)C(=O)N[C@@H](CC1CCCCC1)C(=O)N[C@H](C=O)Cc1ccc[nH]c1=O` [Compound 3]?
Ki [1, 6]: 9 ± 2 nM; Ki ([1]; competitive pattern at < 10 min incubation (Figure S1B), read-out: Ki (3CL-PR) before longer incubation): 16 nM; mode of inhibition of 3CL-PR ([1]; inhibitor vs variable substrate): competitive inhibitor; fold less potent vs 3CL-PR than Nirmatrelvir ([1]; ratio of Ki): 3 fold; Ki (human cathepsin B; [7]): 280 ± 5 nM; Ki (human cathepsin B; [8]): 290 nM; Ki (human cathepsin L [2]; [9]): 8 ± 1 nM; mode of inhibition of hCatL (human cathepsin L [2]): competitive inhibitor; EC50 [3, 10]: 0.47 µM; fold less potent in inhibiting SARS-CoV-2 infection than Nirmatrelvir and PF-835231 ([3]; Vero E6 cells): 2 fold

Which results are given for `CC(C)CC(NC(=O)c1cc2ccccc2[nH]1)C(=O)NC(C=O)Cc1ccc[nH]c1=O` (centres unmarked) [Compound 4]?
Ki [1, 6]: 38 ± 4 nM; Ki (human cathepsin B; [7]): 210 ± 20 nM; Ki (human cathepsin L [2]; [9]): 17 ± 1 nM; EC50 [3, 10]: 15 µM

For `O=CC(Cc1ccc[nH]c1=O)NC(=O)C(CC1CCCCC1)NC(=O)c1cc2ccccc2[nH]1` (centres unmarked) [Compound 5], which Ki [1, 6] is on record?
The Ki was 27 ± 5 nM.

And the “fold improvement in inhibition of 3CL-PR, 5 over 4” value ([1]; CHA for Leu at P2)?
The value was 1.5 fold.

What about the Ki (human cathepsin B; [7]) of the same compound?
The Ki was 101 ± 3 nM.

What about the Ki (human cathepsin L [2]; [9]) of the same compound?
The Ki was 9 ± 2 nM.

What about the “fold improvement in inhibition of hCatL, 5 over 4” value (human cathepsin L [2]; CHA for Leu at P2) of the same compound?
The value was 2 fold.

And the “mode of inhibition of hCatL” value (human cathepsin L [2])?
The value was “competitive inhibitor”.

What about the EC50 [3, 10] of the same compound?
Its EC50 is 1.9 µM.

And the “fold less potent in inhibiting SARS-CoV-2 infection than Nirmatrelvir and PF-835231” value ([3]; Vero E6 cells)?
Its value is “eight-fold less active”.

With `CC(C)(C)[C@H](NC(=O)C(F)(F)F)C(=O)N1C[C@H]2[C@@H]([C@H]1C(=O)N[C@H](C#N)C[C@@H]1CCNC1=O)C2(C)C` [Nirmatrelvir, reference compound] as the compound, how does the EC50 [3, 10] read?
Its EC50 is 0.23 µM.

Which Ki [1, 6] does the source give for `COc1cccc2[nH]c(C(=O)N[C@@H](CC(C)C)C(=O)N[C@H](C=O)Cc3cocn3)cc12` [Compound 8] here?
The Ki was 124 ± 5 nM.

And the Ki (human cathepsin B; [7])?
Its Ki is 189 ± 9 nM.

What about the Ki (human cathepsin L [2]; [9]) of the same compound?
Its Ki is 1.1 ± 0.1 nM.

What about the EC50 ([3]; Severe acute respiratory syndrome coronavirus 2, Vero C1008, 72 h, read-out: Anti-SARS-CoV-2 Activity EC50 (μM), Vero E6 cells, 2 μM CP-100356, CPE after 3 days) of the same compound?
The EC50 was 0.62 µM.

And the EC50 ([3]; Vero E6 cells, 2 μM CP-100356, CPE after 3 days, read-out: Anti-SARS-CoV-2 Activity EC50)?
Its EC50 is 0.625 µM.

What does the source list for `COc1cccc2[nH]c(C(=O)NC(CC(C)C)C(=O)NC(C=O)Cc3ccc[nH]c3=O)cc12` (centres unmarked) [Compound 6]?
fold more potent vs 3CL-PR, 6 compared to 8 [1]: 50 fold; fold improvement in inhibition of 3CL-PR, 6 over 4 ([1]; 4-methoxy group on indole): 15 fold; Ki [1, 6]: 2.6 ± 0.4 nM; Ki ([1]; initial rates, t = 0–180 s, read-out: Ki (3CL-Pro) from initial rates vi/v0): 20 ± 2 nM; Ki (human cathepsin B; [7]): 100 ± 2 nM; Ki (human cathepsin B; [8]): 65 ± 3 nM; fold improvement in inhibition of hCatL, 6 over 4 (human cathepsin L [2]; 4-methoxy group on indole): 30 fold; Ki (human cathepsin L [2]; [9]): 0.6 nM and 0.55 nM; Ki (human cathepsin L [2]; initial rates, t = 0–180 s, read-out: Ki (hCatL) from initial rates vi/v0): 2.3 ± 0.4 nM; EC50 [3, 10]: 1.25 µM; fold less potent in inhibiting SARS-CoV-2 infection than Nirmatrelvir and PF-835231 ([3]; Vero E6 cells): five-fold less potent; fold less anti-CoV-2 activity in comparison to AC1115 ([3]; not evaluated under the same conditions): 4 fold

Which Ki (human cathepsin L [4]; AC1115) does the source give for `CC(C)C[C@H](NC(=O)c1cc2ccccc2[nH]1)C(=O)N[C@H](C=O)C[C@@H]1CCNC1=O` [AC1115, reference compound] here?
The Ki was roughly 0.06 nM.

What about the Ki ([5]; AC1115) of the same compound?
Its Ki is 2.4 nM.

For `COc1cccc2[nH]c(C(=O)N[C@@H](CC(C)C)C(=O)N[C@@H](C[C@@H]3CCNC3=O)C(=O)CO)cc12` [PF-835231, reference compound], which Ki [1, 6] is on record?
Its Ki is 0.23 ± 0.09 nM.

What about the “fold more potent than Nirmatrelvir vs 3CL-PR” value ([1]; ratio of Ki) of the same compound?
Its value is “more than 10 fold”.

What about the EC50 [3, 10] of the same compound?
Its EC50 is 0.23 µM.

With `CN1CCN(C(=O)NC(Cc2ccccc2)C(=O)NC2Cc3ccccc3OC2O)CC1` (centres unmarked) [Compound 1] as the compound, how does the “inhibition of 3CL-PR” value ([5]; compound 1) read?
Its value is “did not inhibit”.

What about the Ki ([5]; compound 1) of the same compound?
The Ki was greater than 10000 nM.

Which Ki ([5]; K11777) does the source give for `CN1CCN(C(=O)N[C@@H](Cc2ccccc2)C(=O)N[C@H](/C=C/S(=O)(=O)c2ccccc2)CCc2ccccc2)CC1` [Compound K11777, reference compound] here?
The Ki was greater than 10000 nM.

Which Ki (human cathepsin L [4]; compounds 1 and 2) does the source give for `CN1CCN(C(=O)NC(Cc2ccccc2)C(=O)NC2Cc3cccnc3OC2O)CC1` (centres unmarked) [Compound 2] here?
The Ki was 1.03 nM and 1 nM.

What about the Ki ([5]; compound 2) of the same compound?
The Ki was 250 nM.
